Measurements published in patent US8846947B2, “Benzimidazoles and related analogs as sirtuin modulators” (GlaxoSmithKline LLC, priority 2008, dated 2014).
Read-outs that look alike come from different tables or passages of the source.

Biological target: T1, SIRT1 (Homo sapiens, UniProt Q96EB6)
T1 sequence (Q96EB6 1-747): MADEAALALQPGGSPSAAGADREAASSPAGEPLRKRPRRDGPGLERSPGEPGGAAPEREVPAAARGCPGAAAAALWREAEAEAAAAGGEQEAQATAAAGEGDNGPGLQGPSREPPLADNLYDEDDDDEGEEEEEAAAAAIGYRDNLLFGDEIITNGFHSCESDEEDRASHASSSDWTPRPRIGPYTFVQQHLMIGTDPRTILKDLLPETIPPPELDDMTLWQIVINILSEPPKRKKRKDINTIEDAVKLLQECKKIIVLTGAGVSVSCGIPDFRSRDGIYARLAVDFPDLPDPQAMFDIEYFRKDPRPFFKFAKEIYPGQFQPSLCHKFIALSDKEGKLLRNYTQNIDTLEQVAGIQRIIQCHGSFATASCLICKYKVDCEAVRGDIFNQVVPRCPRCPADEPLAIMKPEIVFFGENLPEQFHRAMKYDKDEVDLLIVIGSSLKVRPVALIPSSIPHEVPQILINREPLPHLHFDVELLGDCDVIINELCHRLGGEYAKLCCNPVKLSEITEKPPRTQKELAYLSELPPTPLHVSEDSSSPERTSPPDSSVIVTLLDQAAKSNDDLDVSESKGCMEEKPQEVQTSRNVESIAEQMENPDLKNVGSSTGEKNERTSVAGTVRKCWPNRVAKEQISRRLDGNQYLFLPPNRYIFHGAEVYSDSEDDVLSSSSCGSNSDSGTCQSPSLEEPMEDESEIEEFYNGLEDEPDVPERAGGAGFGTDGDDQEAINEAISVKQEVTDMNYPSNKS
Test: Mass spectrometry based SIRT1 deacetylase activation assay (acetylated p53-derived peptide substrate)
Type: biochemical

[1] = 0.5 μM peptide substrate, 120 μM βNAD+, 10 nM SIRT1, 25 minutes at 25° C.
[2] = 0.5 μM peptide substrate, 120 μM βNAD+, 10 nM SIRT1, 25 min at 25° C.
[3] = 0.5 μM peptide substrate, 120 μM βNAD+, 10 nM SIRT1, 25 min at 25° C., read-out: EC1.5

EC1.5 [1]	Fold Act. (percent maximum fold activation) [1]	Fold Act. (percent maximum fold activation) [2]	EC1.5 [3]	Structure (SMILES)	also measured
B (EC1.5 1-25 uM)	A (Fold activation >200%)	–	–	O=C(Nc1nccs1)c1cncc2[nH]c(-c3cc(F)ccc3C(F)(F)F)nc12 [Compound 653]	–
A (EC1.5<1.0 uM)	A (Fold activation >200%)	–	–	O=C(Nc1cccnc1)c1cncc2[nH]c(-c3cc(F)ccc3C(F)(F)F)nc12 [Compound 655]	–
–	–	A (Fold activation >200%)	< 1000 nM	O=C(Nc1cccnc1)c1cccc2[nH]c(-c3cccc4c3OC(F)(F)O4)nc12 [Compound 531]	–
–	–	–	–	O=C(Nc1nccs1)c1cccc2[nH]c(-c3ccc(F)c(F)c3)nc12 [Compound 214]	EC1.5: C (EC1.5 >25 uM); Fold Act. (percent maximum fold activation): B (Fold Activation <200%)
–	–	A (Fold activation >200%)	< 1000 nM	O=C(Nc1cccnc1)c1cccc2[nH]c(-c3ccc(N4CCOCC4)cc3C(F)F)nc12 [Compound 554]	–
–	–	A (Fold activation >200%)	< 1000 nM	O=C(Nc1ccncn1)c1cccc2[nH]c(-c3ccc(N4CCOCC4)cc3C(F)(F)F)nc12 [Compound 591]	–
–	–	–	–	O=C(Nc1ccncc1)c1cccc2[nH]c(-c3ccccc3C(F)(F)F)nc12 [Compound 262]	EC1.5: A (EC1.5<1.0 uM); Fold Act. (percent maximum fold activation): A (Fold activation >200%)
–	–	–	–	CC1(C)Cc2cccc(-c3nc4c(C(=O)Nc5nccs5)cccc4[nH]3)c2O1 [Compound 383]	EC1.5: B (EC1.5 1-25 uM); Fold Act. (percent maximum fold activation): B (Fold Activation <200%)
–	–	A (Fold activation >200%)	< 1000 nM	O=C(Nc1nccs1)c1cccc2[nH]c(-c3ccc(N4CCOCC4)cc3C(F)(F)F)nc12 [Compound 414]	–
–	–	B (Fold Activation <200%)	1000 to 25000 nM	O=C(Nc1nccs1)c1cccc2[nH]c(-c3cc(F)cc(Cl)c3OCCN3CCOCC3)nc12 [Compound 543]	–
–	–	A (Fold activation >200%)	< 1000 nM	O=C(Nc1cccnn1)c1cccc2[nH]c(-c3ccc(N4CCOCC4)cc3C(F)F)nc12 [Compound 555]	–
–	–	A (Fold activation >200%)	1000 to 25000 nM	O=C(Nc1ccccn1)c1cccc2[nH]c(-c3ccccc3OCCN3CCOCC3)nc12 [Compound 474]	–
A (EC1.5<1.0 uM)	A (Fold activation >200%)	–	–	Cc1ncccc1-c1nc2c(C(=O)Nc3cccc(CN4CCOCC4)n3)cccc2[nH]1 [Compound 814, 2-(2-methylpyridin-3-yl)-N-(6-(morpholinomethyl)pyridin-2-yl)-1H-benzo[d]imidazole-4-carboxamide]	–
A (EC1.5<1.0 uM)	A (Fold activation >200%)	–	–	O=C(Nc1nccs1)c1cc(N2CCOCC2)cc2[nH]c(-c3ccc(Cl)cc3C(F)(F)F)nc12 [Compound 640]	–
–	–	B (Fold Activation <200%)	< 1000 nM	O=C(Nc1nccs1)c1cccc2[nH]c(-c3ccnc(N4CCCC4)c3)nc12 [Compound 446]	–
–	–	B (Fold Activation <200%)	1000 to 25000 nM	CC1(C)Cc2cc(-c3nc4c(C(=O)Nc5ccccn5)cccc4[nH]3)ccc2O1 [Compound 498]	–
–	–	–	–	Cc1cc(-c2nc3c(C(=O)Nc4nccs4)cccc3[nH]2)no1 [Compound 230]	EC1.5: A (EC1.5<1.0 uM); Fold Act. (percent maximum fold activation): B (Fold Activation <200%)

EC1.5 [1]	Fold Act. (percent maximum fold activation) [1]	Fold Act. (percent maximum fold activation) [2]	EC1.5 [3]	Structure (SMILES)	also measured
–	–	–	–	O=C(Nc1cccc2[nH]c(-c3ccccc3C(F)(F)F)nc12)c1cscn1 [Compound 363]	EC1.5: B (EC1.5 1-25 uM); Fold Act. (percent maximum fold activation): A (Fold activation >200%)
A (EC1.5<1.0 uM)	A (Fold activation >200%)	–	–	O=C(Nc1cccc(CN2CCOCC2)n1)c1cccc2[nH]c(-c3cc(F)ccc3C(F)(F)F)nc12 [Compound 677]	–
–	–	–	–	O=C(Nc1nccs1)c1cccc2[nH]c(-c3ccc4c(c3)OC(F)(F)O4)nc12 [Compound 221]	EC1.5: C (EC1.5 >25 uM); Fold Act. (percent maximum fold activation): B (Fold Activation <200%)
A (EC1.5<1.0 uM)	A (Fold activation >200%)	–	–	O=C(Nc1cccc(OC[C@@H](O)CO)c1)c1cncc2[nH]c(-c3ccccc3C(F)F)nc12 [Compound 714]	–
A (EC1.5<1.0 uM)	A (Fold activation >200%)	–	–	O=C(Nc1cccnc1)c1cncc2[nH]c(-c3ccc(Cl)cc3C(F)(F)F)nc12 [Compound 650]	–
–	–	A (Fold activation >200%)	< 1000 nM	O=C(Nc1cccnc1)c1cccc2[nH]c(-c3ccc(N4CCCC4)cc3C(F)(F)F)nc12 [Compound 573]	–
A (EC1.5<1.0 uM)	A (Fold activation >200%)	–	–	O=C(Nc1cccnc1)c1cccc2[nH]c(-c3ccc(OCCN4CCOCC4)cc3C(F)F)nc12 [Compound 724]	–
–	–	A (Fold activation >200%)	< 1000 nM	O=C(Nc1cccnn1)c1cccc2[nH]c(-c3cc(F)ccc3C(F)(F)F)nc12 [Compound 456]	–
–	–	A (Fold activation >200%)	< 1000 nM	O=C(Nc1cccc(OC2CCNC2)c1)c1cccc2[nH]c(-c3cc(F)ccc3C(F)(F)F)nc12 (centres unmarked) [Compound 524]	–
A (EC1.5<1.0 uM)	A (Fold activation >200%)	–	–	Cc1ccc(-c2nc3c(C(=O)Nc4cccc(CN5CCOCC5)n4)cccc3[nH]2)cn1 [Compound 815, 2-(6-methylpyridin-3-yl)-N-(6-(morpholinomethyl)pyridin-2-yl)-1H-benzo[d]imidazole-4-carboxamide]	–
A (EC1.5<1.0 uM)	A (Fold activation >200%)	–	–	Cc1cnc(NC(=O)c2cncc3nc(-c4ccc(OC[C@@H](O)CO)cc4C(F)F)[nH]c23)s1 [Compound 772]	–
A (EC1.5<1.0 uM)	A (Fold activation >200%)	–	–	O=C(Nc1cccc(CN2CCOCC2)n1)c1cccc2[nH]c(-c3ccccc3C(F)(F)F)nc12 [Compound 672]	–
–	–	A (Fold activation >200%)	< 1000 nM	O=C(Nc1cccnc1)c1cccc2[nH]c(-c3ccc(N4CC[C@@H](F)C4)cc3C(F)(F)F)nc12 [Compound 575]	–
A (EC1.5<1.0 uM)	A (Fold activation >200%)	–	–	O=C(Nc1ccccn1)c1cc(N2CCOCC2)cc2[nH]c(-c3ccccc3C(F)(F)F)nc12 [Compound 629]	–
A (EC1.5<1.0 uM)	A (Fold activation >200%)	–	–	O=C(Nc1ccccn1)c1cc(N2CCOCC2)cc2[nH]c(-c3cc(F)ccc3C(F)(F)F)nc12 [Compound 645]	–
A (EC1.5<1.0 uM)	A (Fold activation >200%)	–	–	O=C(Nc1cccnc1)c1cc(N2CCCC2)cc2[nH]c(-c3ccccc3C(F)F)nc12 [Compound 792]	–
A (EC1.5<1.0 uM)	A (Fold activation >200%)	–	–	O=C(Nc1cccc(N2CCOCC2)n1)c1cccc2[nH]c(-c3ccc(Cl)cc3C(F)(F)F)nc12 [Compound 868, 2-(4-chloro-2-(trifluoromethyl)phenyl)-N-(6-morpholinopyridin-2-yl)-1H-benzo[d]imidazole-4-carboxamide]	–
